# Data reported in US20110059482A1, “Sampling Kit” (priority 2008, published 2011).
# Columns and labels:
# [1] = Storage stability / shelf life of antibiotics, tablet and Herogel components; assay type: physicochemical; details: in liquid form, at about 8° C. (refrigerator)
# Experimental: Background: Herogel is a selective growth medium comprising aztreonam and colistin to inhibit the growth of Enterobacteriaceae. Cefoxitin is added to the medium in order to inhibit the growth of MSSA (Methicillin Sensitive Staphylococcus Aureus). Cefoxitin has a short shelf life if it is added to the medium upon manufacturing of the medium and together with other antibiotics. Tests performed at Karolinska University Hospital Laboratory have shown that the activity of cefoxitin in liquid form is reduced after 14 days at about 8° C. (i.e. in a refrigerator) and that aztreonam and colistin if they are added to the growth medium are active for at least 4 months if stored at a temperature of about 8° C. (i.e. in a refrigerator). In order to prolong the shelf life of the Herogel, cefoxitin is incorporated in the tablet in Batch 1. The hypothesis is that the shelf life of the herogel will be prolonged if the tablet is added immediately after the sampling. The shelf life of the tablet is estimated to about 12 months in room temperature. The other components of the Herogel medium have a documented shelf life of at least 6 months upon storage in a refrigerator.
# MSSA = details: according to the referens group for questions related to antibiotic (RAF); cited from earlier work
compound,measurement,setting,value
CO[C@@]1(NC(=O)Cc2cccs2)C(=O)N2C(C(=O)O)=C(COC(N)=O)CS[C@@H]21 [cefoxitin],storage time after which the activity is reduced,[1],14 days
same,minimal inhibitory concentration (MIC) for MSSA,MSSA,4 µg/mL
